The values that follow come from ChEMBL document CHEMBL5126615, “Identification of RAD51-BRCA2 Inhibitors Using N-Acylhydrazone-Based Dynamic Combinatorial Chemistry” (ACS Med Chem Lett, 2022).

The source made the active and inactive calls. The calls are words filed in the database; no cut-off is given here.

The EC50 is the concentration that produces a half-maximal response.

For the first assay, the target named is T1, DNA repair protein RAD51 homolog 1 (Homo sapiens) (UniProt Q06609).
T1 sequence (whole entry): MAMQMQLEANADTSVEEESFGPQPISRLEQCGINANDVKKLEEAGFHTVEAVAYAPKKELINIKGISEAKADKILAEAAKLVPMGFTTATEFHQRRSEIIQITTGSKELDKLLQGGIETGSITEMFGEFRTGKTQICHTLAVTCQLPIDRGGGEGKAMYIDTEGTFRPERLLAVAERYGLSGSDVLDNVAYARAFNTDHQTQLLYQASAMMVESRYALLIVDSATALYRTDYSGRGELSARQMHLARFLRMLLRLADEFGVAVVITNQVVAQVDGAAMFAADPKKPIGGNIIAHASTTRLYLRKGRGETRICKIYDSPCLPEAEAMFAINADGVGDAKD
Briefly: Binding affinity to recombinant human His-tagged RAD51 expressed in Escherichia coli Rosetta2(DE3)pLysS cells by 19F-NMR assay.
Turning to `O=C(CCCOc1ccc(Cl)cc1Cl)N/N=C/c1cccnc1F`, the result was Active.

Test system in the next assay: not listed separately
Kind of assay: Inhibition of recombinant human His-tagged RAD51 expressed in Escherichia coli Rosetta2(DE3)pLysS cells/BRCA2 (unknown origin) by ELISA. Background: An ELISA detects its analyte on a solid surface through an enzyme-linked reagent.
Regarding `COc1cccc(/C=N/NC(=O)CCCOc2ccc(Cl)cc2Cl)c1`, the concentration giving a half-maximal response (EC50) was determined as 60 µM.

On to `O=C(CCCOc1ccc(Cl)cc1Cl)N/N=C/c1cc2c(s1)CCCC2`, for which the concentration giving a half-maximal response (EC50) was 86 µM.

As to `O=C(CCCOc1ccc(Cl)cc1Cl)N/N=C/c1ccc(C(F)(F)F)nc1`, the EC50 worked out at 18 µM.

Turning to `CN(C)c1ccc(/C=N/NC(=O)[C@H](Cc2ccccc2)NC(=O)OC(C)(C)C)cc1`, the EC50 worked out at 70 µM.

Turning to `COc1ccc(/C=N/NC(=O)CCCOc2ccc(Cl)cc2Cl)cn1`, the EC50 stood at 110 µM.

Turning to `O=C(CCCOc1ccc(Cl)cc1Cl)N/N=C/c1cccnc1F`, the EC50 is 19 µM.

Consider `O=C(CCCOc1ccc(Cl)cc1Cl)N/N=C/c1cccc(C(F)(F)F)c1`, for which the EC50 was found to be 19 µM.

Consider `O=C(CCCOc1ccc(Cl)cc1Cl)N/N=C/c1ccc2cc[nH]c2c1`, for which the half-maximal effective concentration (EC50) came to 50 µM.

Consider `Cc1cccc(Cn2nc(C(C)(C)C)cc2C(=O)N/N=C/c2ccc(N(C)C)cc2)c1`, for which the EC50 came to 130 µM.

For `O=C(CCCOc1ccc(Cl)cc1Cl)N/N=C/c1ccc2nccnc2c1`, the 50% effective concentration (EC50) turned out to be 35 µM.
